This note sets out measurements from patent US11896678B2, “Compositions and methods for treatment of peroxisome proliferator-activated receptor gamma (PPARG) activated cancer” (THE BROAD INSTITUTE, INC., priority 2017, dated 2024).

For one test, the target named is T1, PPARG (Homo sapiens, UniProt P37231).
T1 construct: endogenous in cells; host or cells: RT112/84 bladder cancer cells (FABP4-NLucP knock-in clone)
T1 sequence (P37231 1-477 isoform P37231-2): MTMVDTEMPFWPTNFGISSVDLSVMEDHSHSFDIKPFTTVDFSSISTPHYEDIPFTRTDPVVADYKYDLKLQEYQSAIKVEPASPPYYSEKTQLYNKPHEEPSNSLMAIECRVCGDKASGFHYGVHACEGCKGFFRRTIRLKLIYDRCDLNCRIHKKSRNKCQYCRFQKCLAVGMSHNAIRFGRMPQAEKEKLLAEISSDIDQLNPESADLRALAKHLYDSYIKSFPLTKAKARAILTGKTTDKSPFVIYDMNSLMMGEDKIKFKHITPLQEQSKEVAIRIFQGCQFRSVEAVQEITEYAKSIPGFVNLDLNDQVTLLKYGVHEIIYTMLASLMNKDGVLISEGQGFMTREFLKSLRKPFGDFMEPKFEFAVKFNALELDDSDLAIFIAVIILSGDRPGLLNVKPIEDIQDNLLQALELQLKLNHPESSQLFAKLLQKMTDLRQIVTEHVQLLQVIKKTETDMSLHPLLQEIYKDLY
The test can be described thus: RT112/84 FABP4-NLucP reporter gene assay, unstimulated. It counts as cell-based. From the text: Next, a PPARG reporter cell line was engineered to enable higher throughput assays to evaluate PPARG transactivation. Briefly, a destabilized NanoLuc luciferase reporter gene was inserted into the 3′-UTR of the FABP4 gene in the RT112/84 bladder cancer cell line using CRISPR/Cas9 mediated homology-directed repair (FIG. 4A).
RT112-FABP4-NLucP Reporter Gene Assay: Reporter cell line was generated by engineering NanoLuc gene into the 3′ UTR of FABP4 in RT112/84 cells using CRISPR/Cas9 guided genome engineering. Single cell clones were generated and the clone with the widest dynamic range selected for use. Assays were performed by seeding 384-well plates with ˜10,000 cells per well in MEMalpha containing 10% FBS and dosing compounds at indicated concentration using HP D300 digital dispenser (HP/Tecan). 18-24 hours after dosing with compound, cells were assayed using NanoGlo Luciferase Assay Reagent (Promega Madison, WI) and plates were read using EnVision Multilabel Reader (PerkinElmer Waltham, MA).
A general note: In a reporter assay the amount or activity of a reporter protein is the signal.

For test [1], the target named is T2, PPARG ligand-binding domain (Homo sapiens, UniProt P37231).
T2 sequence (P37231 238-503 limits assumed): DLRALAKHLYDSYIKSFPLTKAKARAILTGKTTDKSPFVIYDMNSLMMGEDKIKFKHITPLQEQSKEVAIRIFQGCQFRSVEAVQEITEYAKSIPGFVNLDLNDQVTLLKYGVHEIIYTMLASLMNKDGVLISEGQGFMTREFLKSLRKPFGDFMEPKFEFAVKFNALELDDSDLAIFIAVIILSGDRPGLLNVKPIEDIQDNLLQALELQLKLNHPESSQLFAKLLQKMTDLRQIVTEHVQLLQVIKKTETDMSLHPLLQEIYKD
The test can be described thus: TR-FRET PPARG competition binding assay. As to conditions: maximal concentration tested 10 uM.
Protocol: To evaluate binding affinity, a PPARG competition binding assay that measures displacement of a fluorescent PPARG ligand from the PPARG ligand-binding domain was used.
Biochemical Assays: The LanthaScreen TR-FRET PPAR gamma Competitive Binding Assay and LanthaScreen TR-FRET PPAR gamma Coactivator Assay were obtained from ThermoFisher Scientific. Assays were performed according to the manufacturer's protocol. In order to assay inverse-agonism, the Coactivator assay was modified by the use of fluorescently labeled co-repressor peptides (NCoR1 ID2 peptide, SMRT ID2 peptide) to convert from agonist mode (coactivator recruitment) into inverse-agonist mode (corepressor recruitment).

The target of test [2] is T3, PPARG ligand-binding domain - TRAP220/MED1 coactivator peptide (Homo sapiens, UniProt P37231).
T3 construct: purchased ThermoFisher Scientific
T3 sequence (P37231 238-503 limits assumed): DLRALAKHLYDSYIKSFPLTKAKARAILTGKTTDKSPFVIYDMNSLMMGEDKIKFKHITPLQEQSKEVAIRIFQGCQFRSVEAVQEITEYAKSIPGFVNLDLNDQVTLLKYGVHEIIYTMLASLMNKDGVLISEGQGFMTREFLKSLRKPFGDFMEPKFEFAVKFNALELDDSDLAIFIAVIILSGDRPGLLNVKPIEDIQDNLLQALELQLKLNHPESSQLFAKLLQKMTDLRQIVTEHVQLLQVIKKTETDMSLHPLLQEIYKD
Kind of test: TR-FRET coactivator assay, TRAP220/MED1 peptide. It counts as biochemical. A general note: In TR-FRET formats the signal depends on donor and acceptor labels being close together.

For test [3], the system named is PPARG-activated bladder cancer cell lines. The test can be described thus: Proliferation assays in PPARG-activated bladder cancer cell lines. It counts as cell-based, human. As to conditions: 100 nM-500 nM. Here is the method:
A panel of bladder cancer cell lines with PPARG modulators in colony formation assays was then tested (FIG. 10), kinetic proliferation assays (IncuCyte Zoom; Essen Bioscience) using cell lines treated with a single concentration of compound (100 nM-500 nM), and end-point dose-response assays (CellTiter Glo or CyQuant).
This assay was expanded to include an additional 8 representative bladder cancer cell lines, including cell lines with PPARG amplification, RXRA p.S427F mutation, activated gene signature, and control cell lines with low level expression of PPARG and target genes. […] Representative data for the UM-UC-9 cell line are shown in FIG. 6B, and is tabulated for the tested bladder cancer cell lines in Table 1. […] This significant (P<0.01) preferential sensitivity to PPARG inverse-agonists, but not antagonists, is maintained across all of the PPARG-activated cell lines in the panel, including the RXRA p.S427F cell line, HT-1197 (41), the PPARG-amplified cell lines, 5637 and UM-UC-9, and the PPARG activation gene signature cell lines Cal29, UM-UC-1, and RT112/84 (FIG. 12). […] Similar results were obtained with these cell lines in parallel studies using clonogenic assays to quantify colony-forming ability (FIG. 10).
(§1) Proliferation Assays: To enable cell-counting experiments, cell lines were transduced with a lentiviral vector encoding nuclear-targeted GFP, TagGFP2-H2B (Evrogen), and stable pools generated following selection for puromycin resistance. Cell lines were maintained for at least 7 days following selection prior to expansion and seeding into 96- or 384-well plates for further analysis. For kinetic proliferation assays, 96-well plates (n 1% 4 per condition) were imaged and counted every two hours using IncuCyte Zoom (Essen BioScience). Media and compounds were replaced approximately every 3-4 days. For endpoint assays to measure dose-response, cells were plated in 384-well plates, dosed with compound, and upon reaching approximately 70% to 90% confluence in control wells, cells were either counted using fluorescence imaging (Incu-Cyte Zoom) or incubated with CyQuant (Thermo Fisher) at the indicated time and plates were read with a fluorescent plate reader.

The next test concerns UM-UC-9 cells. The test can be described thus: Direct cell counting dose-response proliferation assay. It counts as cell-based, human. How it is done: To determine whether PPARG modulators affect the proliferation and/or viability of PPARG-activated bladder cancer cell lines, a direct cell counting-based assay was performed. This assay likely avoids potential artifacts associated with the use of an ATP content-based assay, given that PPAR modulators are known to regulate cellular metabolic activity. […] These IC50 values align well with the calculated IC50s from both the cell-based reporter gene assay (FIG. 8A) and the biochemical corepressor assay (FIG. 8D).
as §1

In test [4] the test system is PPARG-activated pancreatic and colorectal cancer cell lines. Kind of test: Kinetic proliferation assay in pancreatic and colorectal cancer cell lines. It counts as cell-based. As to conditions: 500 nM. From the text: To enable cell-counting, cell lines were transduced with a lentiviral vector encoding nuclear-targeted GFP (TagGFP2-H2B), and stable pools generated following selection for puromycin-resistance. Cell lines were maintained for at least 7 days following selection prior to expansion and seeding into 96-well plates for further analysis. For kinetic proliferation assays, 96-well plates were imaged in phase-contrast and green fluorescence mode every two hours using IncuCyte Zoom (Essen BioScience, Ann Arbor MI). Using IncuCyte software, the number of fluorescent nuclei were counted to monitor quantitative changes in cell number over time. Media and compounds were replaced approximately every 3-4 days.
DMSO treatment was also included as a vehicle control.

The test system of test [5] is PPARG target gene expression in UM-UC-9 cells. The test can be described thus: RNA sequencing of UM-UC-9 cells after 7 days dosing. Particulars: 500 nmol/L. It counts as cell-based, human. Here is the method: Next, the effects of long-term dosing on the transcriptional profile of the PPARG-amplified cell line, UMUC-9, were evaluated. Briefly, UM-UC-9 cells were treated for 7 days with various PPARG modulators dosed at 500 nmol/L and gene expression was analyzed using RNA sequencing. […] Genes that were more abundantly expressed upon treatment with inverse-agonists included ALPP, SPINK4, and ALDH1A3 (FIG. 5). […] In summary, the in vitro pharmacological properties of known PPARG modulators have been characterized and two distinct chemotypes with bona-fide inverse-agonist activity in PPARG-activated bladder cancer cells were identified.
RNAseq analysis: RNA was isolated using RNEasy (Qiagen) and an RNAseq library was prepared using NEBNext Ultra Directional RNA Library Prep Kit for Illumina and NEBNext Multiplex Oligos for Illumina (New England BioLabs). RNAseq sequencing was performed using an Illumina MiSeq instrument according to the manufacturers protocol. Sequence data was analyzed using Firehose (Broad Institute, Cambridge MA) to map transcripts and calculate RPKM (SW780 cDNA expression) or TPM (UM-UC-9).
For UM-UC-9 RNAseq experiment, the resulting reads were used to calculate transcript abundance in units of TPM (transcripts per million) (18), which were then adjusted using TMM normalization (19) for comparison. […]

Consider `CC(C)(c1ccc(OCC2CO2)cc1)c1ccc(OCC2CO2)cc1` (centres unmarked) [BADGE, Bisphenol A diglycidyl ether], for which, at PPARG, the “effect on unstimulated reporter” value is reported as “minimal detectable effect”. Moreover, the “binding to PPARG LBD, competition with fluorescent ligand” value in test [1] is “weak activity”. Besides, the “effect in coactivator assay” value in test [2] is “minimal effect”.

Consider `CCC(=O)NC[C@H](Cc1ccc(OCCc2nc(-c3ccccc3)oc2C)cc1)N/C(C)=C\C(=O)c1ccc(C(F)(F)F)cc1` [GW6471], for which the “effect on unstimulated reporter” value at PPARG is recorded as “modest inhibitory effect”.

In the case of `COP(=O)(OC)OC(c1ccc(Cl)cc1)P(=O)(OC)OC` (centres unmarked) [SR202, Mifobate], at PPARG, the “effect on unstimulated reporter” value is recorded as “minimal detectable effect”. The “binding to PPARG LBD, competition with fluorescent ligand” value in test [1] is “weak activity”. The “effect in coactivator assay” value in test [2] is “minimal effect”.

As for `Cc1c(C)n(Cc2ccc(-c3ccccc3C(=O)O)cc2)c2ccc(C(=O)N[C@@H](C)c3ccc(C(C)(C)C)cc3)cc12` [SR2595], the “sensitivity of cell lines” value in test [3] and in test [4] was “not sensitive” throughout. The “effect on cell proliferation compared with DMSO control” value in the test with UM-UC-9 cells is “no significant effects”. Moreover, in test [5], the “hierarchical clustering of gene expression signatures” value was “cluster with vehicle-treated controls”.
